Literature values as cited in patent CN115177586A, “一种卡泊三醇组合物” (Jiangsu Zhiyuan Pharmaceutical Co ltd, priority 2022, dated 2022).

Conditions: not told

## C=C1/C(=C\C=C2/CCC[C@]3(C)[C@@H]([C@H](C)/C=C/[C@@H](O)C4CC4)CC[C@@H]23)C[C@@H](O)C[C@@H]1O [卡泊三醇]
  permeability: 渗透性极差
